For this test, the target named is T1, Human PD-L1/PD-1 (Homo sapiens, UniProt Q9NZQ7).
T1 construct: TVMV protease cleavage site (C); made in house; host or cells: HEK293T cells
In words: HTRF Human PD-L1/PD-1 binding assay (PD-1-Ig/PD-L1-His). Particulars: PD-L1-His 10 nM, PD-1-Ig 20 nM; class symbol; read-out: HTRF Human PD-L1/PD-1 Binding Assay IC50 Range. The essentials: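 Step 1: compound with PD-L1-His (10 nM final), 15 min. Step 2: PD-1-Ig (20 nM final), 15 min. Step 3: Eu-cryptate anti-Ig (1 nM) plus APC anti-His (20 nM), 30 min equilibration. Signal taken as 665 nm/620 nm ratio.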
(In general: Time-resolved FRET reads energy transfer from a long-lived donor to a nearby acceptor.)

*1 amine or outer side, *2 acyl side, *3 side chain or, on linkers, in order; H or OH if unused. Where a SMILES comes first, the peptide text is derived from it. Bridges are numbered along the chain shown (N, C = ends). [ ]: non-standard residue; d: D form. ξ: configuration not given here. Phe(3,4,5-F3) = N[C@@H](Cc1cc(F)c(F)c(F)c1)C(=O)O; Phe(3,4-F2) = N[C@@H](Cc1ccc(F)c(F)c1)C(=O)O; NMePhe(4-Me) = CN[C@@H](Cc1ccc(C)cc1)C(=O)O; NMePhe(4-F) = CN[C@@H](Cc1ccc(F)cc1)C(=O)O; Phe(4-F) = N[C@@H](Cc1ccc(F)cc1)C(=O)O; d(cisHyp) = O=C(O)[C@H]1C[C@@H](O)CN1; Bta = N[C@@H](Cc1csc2ccccc12)C(=O)O; Hyp = O=C(O)[C@@H]1C[C@@H](O)CN1; NMeF = CN[C@@H](Cc1ccccc1)C(=O)O; X1 = O=C([C@H]1COCCN1[*:1])[*:2]; NMeNle = CCCC[C@H](NC)C(=O)O; dPip = O=C(O)[C@H]1CCCCN1; NMeA = CN[C@@H](C)C(=O)O; Orn = NCCC[C@H](N)C(=O)O; Dap = NC[C@H](N)C(=O)O; ξC = NC(CS)C(=O)O

T1 sequence (Q9NZQ7 with tags, fused parts or gaps): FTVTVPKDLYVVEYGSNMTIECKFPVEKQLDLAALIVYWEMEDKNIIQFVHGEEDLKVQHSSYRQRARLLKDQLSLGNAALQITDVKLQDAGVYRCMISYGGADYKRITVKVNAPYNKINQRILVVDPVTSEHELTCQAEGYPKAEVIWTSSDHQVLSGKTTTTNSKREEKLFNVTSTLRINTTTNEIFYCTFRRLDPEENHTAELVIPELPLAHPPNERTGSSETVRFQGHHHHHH

`CCCC[C@H]1C(=O)N2CCC[C@@H]2C(=O)N[C@@H](CC(=O)O)C(=O)N[C@@H](C(C)C)C(=O)N(C)[C@@H](Cc2ccccc2)C(=O)N[C@@H](CCC(=O)O)C(=O)N2CCOC[C@@H]2C(=O)N[C@@H](Cc2c[nH]c3ccccc23)C(=O)N[C@@H](Cc2ccc(O)cc2)C(=O)N[C@@H](CCCN)C(=O)N[C@H](C(=O)NCC(N)=O)CSCC(=O)N[C@@H](Cc2cc(F)c(F)c(F)c2)C(=O)N(C)[C@@H](Cc2ccccc2)C(=O)N1C` [Example 3645] ({CH2CO}-[Phe(3,4,5-F3)][NMeF][NMeNle][dP]DV[NMeF]E[X1]WY[Orn]CG-NH2; thioether N-13): the IC50 is 10 to 99.9 nM.
As for `CCCC[C@H]1C(=O)N2CCC[C@@H]2C(=O)N[C@@H](CC(=O)O)C(=O)N[C@@H](C(C)C)C(=O)N(C)[C@@H](Cc2ccccc2)C(=O)N[C@@H](CC(=O)O)C(=O)N2CCC[C@@H]2C(=O)N[C@@H](Cc2c[nH]c3ccccc23)C(=O)N[C@@H](Cc2ccc(O)cc2)C(=O)N[C@@H](CC(C)C)C(=O)N[C@H](C(=O)NCC(N)=O)CSCC(=O)N[C@@H](Cc2ccc(F)cc2)C(=O)N(C)[C@@H](Cc2ccccc2)C(=O)N1C` [Example 10106] ({CH2CO}-[Phe(4-F)][NMeF][NMeNle][dP]DV[NMeF]D[dP]WYLCG-NH2; thioether N-13), the figure is 1 to 9.9 nM; as for `CCCC[C@H]1C(=O)N2CCC[C@@H]2C(=O)N[C@@H](CC(=O)O)C(=O)N[C@@H](C(C)C)C(=O)N(C)[C@@H](Cc2ccc(C)cc2)C(=O)N[C@@H](CC(=O)O)C(=O)N2CCC[C@@H]2C(=O)N[C@@H](Cc2c[nH]c3ccccc23)C(=O)N[C@@H](Cc2ccc(O)cc2)C(=O)N[C@@H](CC(C)C)C(=O)N[C@H](C(=O)NCC(N)=O)CSCC(=O)N[C@@H](Cc2ccc(F)cc2)C(=O)N(C)[C@@H](Cc2ccccc2)C(=O)N1C` [Example 10114] ({CH2CO}-[Phe(4-F)][NMeF][NMeNle][dP]DV[NMePhe(4-Me)]D[dP]WYLCG-NH2; thioether N-13), 100 to 990 nM.
As for `CCCC[C@H]1C(=O)N(C)[C@@H](CCCC)C(=O)N[C@@H](CCC(=O)O)C(=O)N[C@H](C(=O)NCC(N)=O)CSCC(=O)N[C@@H](Cc2ccc(OC)cc2)C(=O)N(C)[C@@H](C)C(=O)N[C@@H](CC(=O)O)C(=O)N2CCC[C@H]2C(=O)N[C@@H](Cc2cnc[nH]2)C(=O)N[C@@H](CCCCN)C(=O)N2C[C@H](O)C[C@H]2C(=O)N[C@@H](Cc2c[nH]c3ccccc23)C(=O)N[C@@H](CC(=O)O)C(=O)N[C@@H](Cc2c[nH]c3ccccc23)C(=O)N1C` [Example 7131] ({CH2CO}-Y(Me)[NMeA]DPHK[Hyp]WDW[NMeNle][NMeNle]ECG-NH2; thioether N-14), the figure is 1 to 9.9 nM; as for `CCCC[C@H]1C(=O)N(C)[C@@H](CCCC)C(=O)N[C@@H](CCCNC(=N)N)C(=O)N[C@H](C(=O)NCC(N)=O)CSCC(=O)N[C@@H](Cc2ccc(F)c(F)c2)C(=O)N(C)[C@@H](C)C(=O)N[C@@H](CC(N)=O)C(=O)N2CCC[C@H]2C(=O)N[C@@H](CN)C(=O)N[C@@H](CC(C)C)C(=O)N2C[C@H](O)C[C@H]2C(=O)N[C@@H](Cc2c[nH]c3ccccc23)C(=O)N[C@@H](CO)C(=O)N[C@@H](Cc2c[nH]c3ccccc23)C(=O)N1C` [Example 7068] ({CH2CO}-[Phe(3,4-F2)][NMeA]NP[Dap]L[Hyp]WSW[NMeNle][NMeNle]RCG-NH2; thioether N-14), 10 to 99.9 nM; as for `CCCC[C@H]1C(=O)N2C[C@H](O)C[C@@H]2C(=O)N[C@@H](CC(=O)O)C(=O)N[C@@H](C(C)C)C(=O)N(C)[C@@H](Cc2ccccc2)C(=O)N[C@@H](CCC(=O)O)C(=O)N2C[C@H](O)C[C@@H]2C(=O)N[C@@H](Cc2c[nH]c3ccccc23)C(=O)N[C@@H](Cc2ccc(O)cc2)C(=O)N[C@@H](CCC(N)=O)C(=O)N[C@H](C(=O)NCC(N)=O)CSCC(=O)N[C@@H](Cc2cc(F)c(F)c(F)c2)C(=O)N(C)[C@@H](Cc2ccccc2)C(=O)N1C` [Example 9337] ({CH2CO}-[Phe(3,4,5-F3)][NMeF][NMeNle][d(cisHyp)]DV[NMeF]E[d(cisHyp)]WYQCG-NH2; thioether N-13), 10 to 99.9 nM.
Regarding `CCCC[C@H]1C(=O)N2CCC[C@@H]2C(=O)N[C@@H](CC(=O)O)C(=O)N[C@@H](C(C)C)C(=O)N(C)[C@@H](Cc2ccccc2)C(=O)N[C@@H](CCC(=O)O)C(=O)N2CCCC[C@@H]2C(=O)N[C@H](CCC(=O)O)C(=O)N[C@@H](Cc2ccc(O)cc2)C(=O)N[C@@H](CCCN)C(=O)N[C@H](C(=O)NCC(N)=O)CSCC(=O)N[C@@H](Cc2cc(F)c(F)c(F)c2)C(=O)N(C)[C@@H](Cc2ccc(F)cc2)C(=O)N1C` [Example 10608] ({CH2CO}-[Phe(3,4,5-F3)][NMePhe(4-F)][NMeNle][dP]DV[NMeF]E[dPip][dE]Y[Orn]CG-NH2; thioether N-13), the IC50 is 1000 to 10000 nM.
In the case of `CCCC[C@H]1C(=O)N2CCOC[C@@H]2C(=O)N[C@@H](CC(=O)O)C(=O)N[C@@H](C(C)C)C(=O)N(C)[C@@H](Cc2ccccc2)C(=O)N[C@@H](CCC(=O)O)C(=O)N2CCOC[C@@H]2C(=O)N[C@@H](Cc2c[nH]c3ccccc23)C(=O)N[C@@H](Cc2ccc(O)cc2)C(=O)N[C@@H](CCCN)C(=O)N[C@H](C(=O)NCC(N)=O)CSCC(=O)N[C@@H](Cc2cc(F)c(F)c(F)c2)C(=O)N(C)[C@@H](Cc2ccccc2)C(=O)N1C` [Example 9282] ({CH2CO}-[Phe(3,4,5-F3)][NMeF][NMeNle][X1]DV[NMeF]E[X1]WY[Orn]CG-NH2; thioether N-13), the IC50 was in the range of 10 to 99.9 nM.
As for `CCCC[C@H]1C(=O)N2C[C@H](O)C[C@@H]2C(=O)N[C@@H](CC(=O)O)C(=O)N[C@@H](C(C)C)C(=O)N(C)[C@@H](Cc2ccccc2)C(=O)N[C@@H](CCC(=O)O)C(=O)N2C[C@H](O)C[C@@H]2C(=O)N[C@@H](Cc2c[nH]c3ccccc23)C(=O)N[C@@H](Cc2ccc(O)cc2)C(=O)N[C@@H](CC(C)C)C(=O)N[C@H](C(=O)NCC(N)=O)CSCC(=O)N[C@@H](Cc2cc(F)c(F)c(F)c2)C(=O)N(C)[C@@H](Cc2ccccc2)C(=O)N1C` [Example 9330] ({CH2CO}-[Phe(3,4,5-F3)][NMeF][NMeNle][d(cisHyp)]DV[NMeF]E[d(cisHyp)]WYLCG-NH2; thioether N-13), the figure is 10 to 99.9 nM; as for `CCCC[C@H]1C(=O)N(C)[C@@H](C)C(=O)N[C@@H](CCCNC(=N)N)C(=O)NC(C(=O)NCC(N)=O)CSCC(=O)N[C@@H](Cc2ccc(O)cc2)C(=O)N(C)[C@@H](C)C(=O)N[C@@H](CC(N)=O)C(=O)N2CCC[C@H]2C(=O)N[C@@H](CO)C(=O)N[C@H](CC(C)C)C(=O)N2C[C@H](O)C[C@H]2C(=O)N[C@@H](Cc2c[nH]c3ccccc23)C(=O)N[C@@H](CO)C(=O)N[C@@H](Cc2csc3ccccc23)C(=O)N1C` (stereo partly drawn) [Example 9116] ({CH2CO}-Y[NMeA]NPS[dL][Hyp]WS[Bta][NMeNle][NMeA]R[ξC]G-NH2; thioether N-14), 10 to 99.9 nM.
To `CCCC[C@H]1C(=O)N(C)[C@@H](CCCC)C(=O)N[C@@H](CCCN)C(=O)NC(C(=O)NCC(N)=O)CSCC(=O)N[C@@H](Cc2ccc(O)cc2)C(=O)N(C)[C@@H](C)C(=O)N[C@@H](CC(N)=O)C(=O)N2CCC[C@H]2C(=O)N[C@@H](CC(N)=O)C(=O)N[C@@H](CC(C)C)C(=O)N2CCC[C@H]2C(=O)N[C@@H](Cc2c[nH]c3ccccc23)C(=O)N[C@@H](CO)C(=O)N[C@@H](Cc2c[nH]c3ccccc23)C(=O)N1C` (some centres unmarked) [Example 9155] ({CH2CO}-Y[NMeA]NPNLPWSW[NMeNle][NMeNle][Orn][ξC]G-NH2; thioether N-14) belongs 1 to 9.9 nM.

Values taken from US10538555B2, “Macrocyclic inhibitors of the PD-1/PD-L1 and CD80(B7-1)/PD-L1 protein/protein interactions” (BRISTOL-MYERS SQUIBB COMPANY, priority 2014, dated 2020).
